Data taken from US11892401B2, “Boronic acid appended naphthyl-pyridinium fluorescent saccharide sensors for early detection of gastrointestinal diseases” (The Board of Trustees of the Leland Stanford Junior …, priority 2018, dated 2024).
Like-named read-outs stand apart in the source and are kept apart here.

Key:
[1] = Fluorescence emission of receptor compounds with increasing lactulose; settings: phosphate buffer pH 7.4; for emission maxima: receptor 500 μM; for fluorescence intensity change on initial introduction of lactulose: lactulose 0.5 mM
Protocol: Fluorescence Measurements of exemplary boronic acid receptor compounds: Stock solutions of each boronic acid receptor compound (1-4) were initially prepared in DMS (1 mg/mL) and then diluted to desired initial 1 mM concentration before adding to the wells. Each lactulose concentration points were prepared in 0.1 M sodium phosphate buffer as 2-fold of the desired final concentration in each well. Each well received 20 μL of each receptor compound and sugar concentration (each data point recorded in triplicates) and the fluorescence measurements were conducted in a 96-well plate (Corning #3694) using a Tecan infinite M1000 instrument a plate reader (gain 100, flashes 30, z-position 1.8 cm) Plates were shaken for 30 seconds (2 mm orbital amplitude) prior to reading.
With reference to FIG. 4, panels A to D, the effect of lactulose on the fluorescent properties of each receptor compound (1-4) was examined in phosphate buffer pH 7.4. Receptor compounds (1) and (2) observed similar emission profiles with emission maxima at 504 and 490 nm, meanwhile the emission maxima for (3) and (4) was 50 nm less which peaked at 440 nm. […] These types of fluorescent changes have been previously observed by Norrild where a pyridinium moiety is directly conjugated to an anthracene core (Eggert, H.; Frederiksen, J.; Morin, C.; Norrild, J. C., Journal of Organic Chemistry 1999, 64 (11), 3846-3852). Without being bound to any particular theory, it was hypothesized that the pyridinium unit in the subject receptor compounds may act as an electron sink for the singlet electron diminishing the fluorescence intensity. Upon boronic acid-sugar recognition and subsequently conversion of the hybridization of the boron atom from sp^2 to anionic sp^3 generating a zwitterion induces an internal charge transfer (ICT)-like mechanism increasing the fluorescence intensity.

[2] = Absorption measurements with increasing lactulose; format: physicochemical; settings: 0.1 M sodium phosphate buffer pH 7.4; 100 μM (1, 2), 50 μM (3, 4)
Protocol: Absorption measurements of exemplary boronic acid receptor compounds: All absorption measurements were carried out using an Agilent Technologies Cary 60 Vis instrument in a quartz cuvette (1 cm pathlength). Stock solutions (1 mg/mL) of each compound was initially prepared in DMSO and then diluted to the desired concentration in 0.1 M sodium phosphate buffer pH 7.4 which gave minimal DMSO amount of at least 15%. Concentrations for each boronic acid receptor in cuvette are as follows; (1)=100 μM, (2)=100 μM, (3)=50 μM, and (4)=50 µM. Measurements were done in situ by taking the absorbance of each receptor compound in phosphate buffer pH 7.4, then aliquots of buffered 1 M lactulose (0.5-7 μL) was added, shaken for 30 seconds, and the new absorbance was recorded. With reference to FIG. 3, panels A to D, change of absorbance for each receptor compound was monitored as a function of increasing lactulose. […] Each compound provided absorbance maxima between 300-350 nm and with isosbestic points between 330-350 nm for all four receptors. Additionally, the compounds provided molar extinction coefficients of 1.17×10^4 (100 μM), 1.10×10^4 (100 μM), 2.77×10^4 (50 μM), and 5.01×10^4 (50 μM) M^−1 cm^−1 for 1-4 respectively. Without being bound to any particular theory, these absorption changes upon sugar binding at physiological pH for compounds 1-4 is indicative of a possible charge transfer process.

[3] = pH profile / pKa by fluorescence spectroscopy; format: physicochemical; settings: receptor 500 μM (2) or 250 μM (3, 4), fluorescence titration pH 3-10
Protocol: Titration curves with pH were determined using the following buffer solutions, pH 3-4 acetate buffer; pH 5-8.5 phosphate buffer; and pH 9-10 carbonate buffer. Fluorescence intensity was monitored in the absence or presence of 30 mM lactulose for exemplary receptor compounds, e.g., 2, 500 μM; 3, 250 μM; and (4, 205 µM in the indicated buffer conditions. Stock solutions of each boronic acid receptor compound (2, 3, and 4) were initially prepared in DMS (1 mg/mL) and then diluted in appropriate buffer conditions to obtain the desired initial 2-fold concentration. Fluorescence measurements were conducted in a 96-well plate (Corning #3694) and to each well 30 μL of each receptor compound and buffer media with or without lactulose were added in triplicate. Blank wells received 60 μL of buffer only. Measurements were performed using a Tecan Infinite M1000 instrument, a plate reader (gain 100, flashes 30, z-position 1.8 cm) Plates were shaken for 30 seconds (2 mm orbital amplitude) prior to reading. After blank subtraction, fluorescence intensity relative to initial total fluorescence (at pH 3).
Each pH-profile was fitted with equation S1, where y=normalized intensity, ymax=maximum normalized intensity, ymin=minimum normalized intensity, x=pH value, k=acid dissociation constant and pka values were obtained from this constant (pka=−log k).
Titration curves fitted to equation S1.

[4] = Stern-Volmer quenching of TSPP anionic reporter dye; format: binding; settings: 4 μM TSPP, 0.1 M sodium phosphate buffer pH 7.4, sphere of action quenching model
Protocol: (§1) Stern-Volmer quenching of HPTS and TSPP anionic reporter dyes: Stock solutions of exemplary boronic acid compounds (1, 3, and 4) were initially prepared in DMS (1 mg/mL) and then diluted in 0.1 M sodium phosphate buffer pH 7.4 to obtain the desired initial 2-fold concentration. Fluorescence measurements were conducted in a 96-well plate (Corning #3694) and to each well were added 20 μL of each exemplary compound and 8 μM of HPTS or TSPP in triplicate. Initial fluorescence wells contained 20 μL of each reporter dye and 20 μL of buffer. Blank wells received 40 μL of buffer only. Measurements were performed using a Tecan infinite M1000 instrument a plate reader (gain 100, flashes 30, z-position 1.8 cm) Plates were shaken for 30 seconds (2 mm orbital amplitude) prior to reading. After blank subtraction, fluorescence intensity relative to initial total fluorescence of HPTS or TSPP (Fo/F) for each sample was calculated.
(§2) Given the cationic character of the subject receptor compounds, their ability to form a non-fluorescent ground state complex with anionic reporter dyes, such as HPTS and TSPP was investigated. The fluorescence quenching of each dye can be quantitatively monitored by Stern-Volmer analysis (Albrecht, C., Anal. Bioanal. Chem. 2008, 390 (5), 1223-1224). Two types of quenching can exist, static quenching, due to complex formation, and dynamic quenching, due to collisional encounters between the dye and quencher. Based on previous work with bis-boronic acid appended viologens (BBV) and their ability to quench HPTS (Cordes, D. B.; Gamsey, S.; Sharrett, Z.; Miller, A.; Thoniyot, P.; Wessling, R. A.; Singaram, B., Langmuir 2005, 21 (14), 6540-6547), a similar quenching mechanism was envisaged for each anionic reporter dye, through static quenching. The effects of adjusting the quencher to dye ratio for HPTS and TSPP with each of compounds 1, 3, and 4 while monitoring the decrease of fluorescence for each dye are shown in FIG. 5, panel A (HPTS) and FIG. 5, panel B (TSPP).
(§3) With each of compounds 1, 3 and 4 only having two cationic groups, it was anticipated anticipated that higher (>400 μM) amounts of each quencher would be required to achieve at least 80% of quenched fluorescence. […] Using the fluorescence data, the quenching efficiency can be determined using the available Stern-Volmer fitting models. The best fit to the Stern-Volmer plots for the exemplary compounds was obtained using the sphere of action quenching model (Eq. 2) (Frank, J. M.; Vavilov, S. I., Z. Phys. 1931, 69, 100-10).
(§4) [formula] Where V is the dynamic quenching constant, Ks is the static quenching constant, [Q] is the concentration of the quencher, and […] is derived from the Poisson distribution. There was higher contribution from the static quenching given the higher static quenching constants compared to the dynamic constants (Table 1).

[5] = Stern-Volmer quenching of HPTS anionic reporter dye; format: binding; settings: 4 μM HPTS, 0.1 M sodium phosphate buffer pH 7.4, sphere of action quenching model
Protocol: as §1, §2, §3, §4

[6] = Fluorescence recovery of HPTS-receptor probes with 20 sugars; settings: 4 μM HPTS, optimal Q:D ratio, pH 7.4, 20 sugars
Protocol: Fluorescence recovery of each anionic reporter dyes: Fluorescence recovery measurements for sugar binding studies were conducted by preparing 96-well plates with the addition of 20 μL of the boronic acid receptor-fluorophore (HPTS or TSPP) probe solution as 2-fold concentrate (for example, 160 μM for (1) & 8 μM HPTS or 800 μM for (1) & 8 μM for TSPP) in 0.1 M sodium phosphate buffer pH 7.4. At the time of running the assay, each well received 20 μL of sample in triplicate. Blank wells were given 40 μL buffer with neither HPTS nor boronic acid receptor compound. Baseline fluorescence wells contained 20 μL of buffer and 20 μL of probe solution. Fluorescence recovery of HPTS was measured on the plate reader. After blank subtraction, fluorescence intensity relative to initial quenched HPTS (F/Fo) for each sample was calculated. Under these conditions, Fo is a non-zero value after background subtraction with about 20% of maximum fluorescence intensity. […]
Each exemplary boronic acid appended naphthyl-pyridinium quencher-dye combination provided unique fluorescent recovery characteristics across all 20 sugars and sugar derivatives analyzed. […]

[7] = 30 mM lactulose, read-out: pka-with 30 mM lactulose
[8] = aqueous buffer solutions in a 96-well plate, no lactulose, read-out: pKa-absence of lactulose

SMILES: OB(O)c1ccccc1C[n+]1ccc(-c2ccc3ccccc3c2)cc1.[Br-] [Compound 2, 1-(2-boronobenzyl)-4-(naphthalen-2-yl) pyridinium bromide]
- emission maxima [1]: 490 nm
- molar extinction coefficient [2]: 11000 M⁻¹ cm⁻¹
- pKa [3, 7]: 5.5 ± 0.06
- pKa [3, 8]: 7.7 ± 0.08

SMILES: OB(O)c1ccccc1C[n+]1ccc(-c2ccc3ccc(-c4cc[n+](Cc5ccccc5B(O)O)cc4)cc3c2)cc1 [Compound 4]
- fluorescence intensity change on initial introduction of lactulose [1]: drastic intensity change
- emission maxima [1]: 440 nm
- molar extinction coefficient [2]: 50100 M⁻¹ cm⁻¹
- pKa [3, 7]: 5.7 ± 0.05
- pKa [3, 8]: 8.2 ± 0.02
- TSPP Ks (static quenching constant) [4]: 1.45 ± 0.1 × 10^4 M^−1
- TSPP V (dynamic quenching constant) [4]: 80 ± 10 M⁻¹
- HPTS Ks (static quenching constant) [5]: 1.00 ± 0.9 × 10^5 M^−1
- HPTS V (dynamic quenching constant) [5]: 100 ± 14 M⁻¹

SMILES: OB(O)c1cc(C[n+]2ccc(-c3ccc4ccccc4c3)cc2)cc(C[n+]2ccc(-c3ccc4ccccc4c3)cc2)c1 [Compound 1]
- change in fluorescence recovery, HPTS combination [6]: ≥ 1.5 fold
- emission maxima [1]: 504 nm
- molar extinction coefficient [2]: 11700 M⁻¹ cm⁻¹
- TSPP Ks (static quenching constant) [4]: 5.24 ± 0.3 × 10^4 M^−1
- TSPP V (dynamic quenching constant) [4]: 112 ± 46 M⁻¹
- HPTS Ks (static quenching constant) [5]: 1.01 ± 0.5 × 10^5 M^−1
- HPTS V (dynamic quenching constant) [5]: 63 ± 15 M⁻¹

SMILES: OB(O)c1ccccc1C[n+]1ccc(-c2ccc3cc(-c4cc[n+](Cc5ccccc5B(O)O)cc4)ccc3c2)cc1 [Compound 3]
- fluorescence intensity change on initial introduction of lactulose [1]: drastic intensity change
- emission maxima [1]: 440 nm
- molar extinction coefficient [2]: 27700 M⁻¹ cm⁻¹
- pKa [3, 7]: 5.8 ± 0.1
- pKa [3, 8]: 7.8 ± 0.03
- TSPP Ks (static quenching constant) [4]: 5.01 ± 0.7 × 10^4 M^−1
- TSPP V (dynamic quenching constant) [4]: 68 ± 13 M⁻¹
- HPTS Ks (static quenching constant) [5]: 9.29 ± 0.4 × 10^4 M^−1
- HPTS V (dynamic quenching constant) [5]: 109 ± 18 M⁻¹
